US20250032527A1, “MEDICAL USE OF N4-HYDROXY CITICOLINE COMPOUNDS” (IMMUNIC AG, priority 2021, published 2025)

Assays:
SARS-COV-2 = assay: microbe, parasite or virus in culture; assay type: cell-based; settings: Severe acute respiratory syndrome coronavirus 2
SARS-COV-2 d6-YFP = assay: Combinatorial drug assessment by viral replication inhibition assay (CompuSyn); assay type: cell-based
RSV A2 = assay: RSV virus titers by endpoint titration (CCID50), mono and combination; assay type: cell-based; settings: for RSV Virus Titers: MA-104 cells, virus control 4.0
HRV-14 = HRV-14 virus titers by endpoint titration (CCID50), mono and combination; assay type: cell-based; settings: for HRV-14 Virus Titers: Hela cells, virus control 6.7
physchem [1] = settings: pH 7.4, aqueous buffer, kinetic from dmso stock
physchem [2] = settings: fassgf or other biorelevant, kinetic from dmso stock
physchem [3] = settings: simulated gastric fluid
physchem [4] = settings: pH 7.4
in vitro [5] = settings: human
in vitro [6] = settings: human, HeLa cells
in vitro [7] = settings: dog, MDCK cells
in vitro [8] = settings: African green monkey, MA-104 cells
[9] = A-B permeability (Caco-2, pH 6.5/7.4); settings: human, A-B, Caco-2, pH 6.5/7.4, test conc. 1.0E−05M
Caco-2 = assay: A-B permeability (Caco-2, pH 6.5/7.4); settings: low solubility, high permeability
[10] = B-A permeability (Caco-2, pH 6.5/7.4); settings: human, test conc. 1.0E−05M
[11] = tested on: human rhinovirus 14 (HRV-14); assay: microbe, parasite or virus in culture; settings: Rhinovirus B, HRV14, HeLa
[12] = tested on: influenza A (H1N1, California/07/2009); assay: microbe, parasite or virus in culture; settings: H1N1, MDCK
[13] = tested on: respiratory syncytial virus (RSV) A2; assay: microbe, parasite or virus in culture; settings: human respiratory syncytial virus, MA104
[14] = Example 1 combined with a DHODH inhibitor
[15] = Caco-2, pH 6.5, Percent Recovery 1st
[16] = Caco-2, pH 6.5, Percent Recovery 2nd
[17] = Caco-2, pH 6.5, Percent Recovery Mean
[18] = Caco-2, pH 6.5, Permeability 1st
[19] = Caco-2, pH 6.5, Permeability 2nd
[20] = Caco-2, pH 6.5, Permeability Mean

C[N+](C)(C)CCOP(=O)([O-])OP(=O)([O-])OC[C@H]1O[C@@H](n2ccc(NO)nc2=O)[C@H](O)[C@@H]1O.[Na+] [Example 1, 2-(((((((2R,3S,4R,5R)-3,4-Dihydroxy-5-(4-(hydroxyamino)-2-oxopyrimidin-1 (2H)-yl)tetrahydrofuran-2-yl)methoxy) (hydroxy)phosphoryl)oxy)oxidophosphoryl)oxy)-N,N,N-trimethylethan-1-aminium mono sodium salt]
EC50 (SARS-COV-2): < 10 µM | combinatorial antiviral effect (SARS-COV-2 d6-YFP): synergistic | RSV Virus Titers (RSV A2; Conc. 0.0079 μM): 4.5 CCID50/mL (Log10) | RSV Virus Titers (RSV A2; Conc. 0.025 μM): 4.0 CCID50/mL (Log10) | RSV Virus Titers (RSV A2; Conc. 0.079 μM): 3.5 CCID50/mL (Log10) | RSV Virus Titers (RSV A2; Conc. 0.25 μM): 4.0 CCID50/mL (Log10) | RSV Virus Titers (RSV A2; Conc. 0.79 μM): 4.0 CCID50/mL (Log10) | RSV Virus Titers (RSV A2; Conc. 2.5 μM): 3.5 CCID50/mL (Log10) | RSV Virus Titers (RSV A2; Conc. 7.9 μM): 3.5 CCID50/mL (Log10) | RSV Virus Titers (RSV A2; Conc. 25 μM): 3.5 CCID50/mL (Log10) | combination behavior on RSV (RSV A2; [14]): synergistic | HRV-14 Virus Titers (HRV-14; Conc. 0.0079 μM): 6.7 CCID50/mL (Log10) | HRV-14 Virus Titers (HRV-14; Conc. 0.025 μM): 6.7 CCID50/mL (Log10) | HRV-14 Virus Titers (HRV-14; Conc. 0.079 μM): 6.7 CCID50/mL (Log10) | HRV-14 Virus Titers (HRV-14; Conc. 0.25 μM): 7.0 CCID50/mL (Log10) | HRV-14 Virus Titers (HRV-14; Conc. 0.79 μM): 6.7 CCID50/mL (Log10) | HRV-14 Virus Titers (HRV-14; Conc. 2.5 μM): 6.0 CCID50/mL (Log10) | HRV-14 Virus Titers (HRV-14; Conc. 7.9 μM): 4.7 CCID50/mL (Log10) | HRV-14 Virus Titers (HRV-14; Conc. 25 μM): 3.5 CCID50/mL (Log10) | combination behavior on HRV-14 (HRV-14; [14]): synergistic | solubility (physchem [1]; Solubility 1st): 14.2 µM | solubility (physchem [1]; Solubility 2nd): 14.4 µM | solubility (physchem [1]; Solubility Mean): 14.3 µM | solubility (physchem [2]; Solubility 1st): 13.9 µM | solubility (physchem [2]; Solubility 2nd): 18.3 µM | solubility (physchem [2]; Solubility Mean): 16.1 µM | solubility (physchem [3]; Solubility 1st): < 1 µM | solubility (physchem [3]; Solubility 2nd): < 1 µM | solubility (physchem [3]; Solubility Mean): < 1 µM | logD (physchem [4]): 0.52 | CC50 (in vitro [5]): > 100 µM | CC50 (in vitro [6]): > 25 µM | CC50 (in vitro [7]): 25 µM | CC50 (in vitro [8]): 2.4 µM | recovery at 10 µM [9, 15]: 121% | recovery at 10 µM [9, 16]: 115% | recovery at 10 µM [9, 17]: 118% | Papp at 10 µM [9, 18]: 36.1 ×10⁻⁶ cm/s | Papp at 10 µM [9, 19]: 30.7 ×10⁻⁶ cm/s | Papp at 10 µM [9, 20]: 33.4 ×10⁻⁶ cm/s | biopharmaceutics classification (Caco-2): Class Il | recovery at 10 µM [10, 15]: 91% | recovery at 10 µM [10, 16]: 83% | recovery at 10 µM [10, 17]: 87% | Papp at 10 µM [10, 18]: 26.1 ×10⁻⁶ cm/s | Papp at 10 µM [10, 19]: 21.2 ×10⁻⁶ cm/s | Papp at 10 µM [10, 20]: 23.7 ×10⁻⁶ cm/s | EC50 [11]: 4.7 µM | EC50 [12]: 4.8 µM | EC50 [13]: 1.1 µM
